Measurements as given in patent US12529694B2, “Human in vitro cardiotoxicity model” (Brown University, priority 2019, dated 2026).
Read-outs that look alike come from different tables or passages of the source.

What was measured:
rodents = details: greater sensitivity in female rats than male rats; increased with isoproterenol stimulation; cited from earlier work
hiPSC-CMLP microtissues = system: hiPSC-CMLP microtissues
Text: Cardiomyocyte differentiation. The inventors differentiated cardiomyocytes (CMs) from human pluripotent stem cells; either human embryonic stem cells (hESCs, e.g. line RUES2) or human induced pluripotent stem cells (hiPSCs; Gibco human episomal iPSCs from CD34+ cord blood, ThermoFisher Scientific, NCRM-5 human episomal iPSCs from CD34+ cord blood, NIH Center for Regenerative Medicine, WTC11 GM25256 human episomal iPSCs from dermal fibroblasts, The Gladstone Institutes, UCSF) in high-density monolayer cultures. […] Human pluripotent stem cells were cultured on plates coated with truncated human vitronectin (Life Technologies) in Essential 8 medium (ThermoFisher). […] Medium was changed daily until initiation of differentiation (day 0), when cells were approximately 60-90% confluent. […] C-59 (Tocris) or 1 μM XAV939 (Tocris), all chemical Wnt inhibitors, at day 3. […] Some differentiating cells received 100 ng/ml neuregulin-1β (NRG1) daily on days 5-18 (until use in engineered tissues) and/or in engineered tissues. Some engineered tissues received 100 nM insulin-like growth factor 1 (IGF1) daily and/or 100 ng/ml NRG1 daily in engineered tissues. […] Some experiments used unpurified cells as controls and were matched for duration of culture for experiments. Cells undergoing metabolic-based lactate purification were assessed for density and beating visually, and left in the wells of the high-density monolayer cultures for lactate purification if density was high and beating was uniform across large areas of the wells. Cells not meeting these requirements for density and beating were replated at high density, 5-6×10^6 cells/cm^2 on Matrigel-coated 6 well plates in RPMI+B27 medium after 10-20 days of differentiation. All cells undergoing lactate purification were not fed for 4 days as a starvation period to encourage a switch in metabolism from glycolysis to oxidative phosphorylation in the cardiomyocytes, which are capable of this type of metabolism, while non-cardiomyocytes have a lower ability to switch the metabolic phenotype and therefore die, resulting in more pure populations of cardiomyocytes. […] Lactate purified cells were fed with RPMI+B27 until robust beating returned or appeared. Cardiac purity is assessed by flow cytometry analysis.
Fabrication of microtissue mold hydrogels and 3D microtissue culture. Scaffold-free three-dimensional microtissues (spheroid in shape, also called spheroids and/or organoids) are generated using non-adhesive agarose gels with cylindrical microwells with hemispherical bottoms to guide self-assembly. Sterilized 2% (wt/vol) agarose is pipetted into molds designed for 24-well plates with 800-μm-diameter rounded pegs (Microtissues, Providence, RI, USA). After being cooled to room temperature (˜5 minutes), the agarose gels are separated from the molds and transferred to single wells of 24-well plates. For equilibration, 1 mL medium is added to each well. Hydrogels are equilibrated at least one hour or overnight at 37° C. in a humidified incubator with 5% CO2. […]
Optical mapping and automated action potential duration analysis. […] Fluorescence images were filtered using nonlinear bilateral filter (spatial filter: 5×5 window, temporal filter: 21 point window) to preserve action potential upstrokes from blurring. Typically, four microtissues were recorded simultaneously/scan at this magnification.

hiPSC-CM microtissues = details: human
Text: Fabrication of microtissue mold hydrogels and 3D microtissue culture. Scaffold-free three-dimensional microtissues (spheroid in shape, also called spheroids and/or organoids) are generated using non-adhesive agarose gels with cylindrical microwells with hemispherical bottoms to guide self-assembly. Sterilized 2% (wt/vol) agarose is pipetted into molds designed for 24-well plates with 800-μm-diameter rounded pegs (Microtissues, Providence, RI, USA). After being cooled to room temperature (˜5 minutes), the agarose gels are separated from the molds and transferred to single wells of 24-well plates. For equilibration, 1 mL medium is added to each well. Hydrogels are equilibrated at least one hour or overnight at 37° C. in a humidified incubator with 5% CO2. […] Medium is then added to each well (5 ml), and cells are cultured for 6-8 days with electrical field stimulation with a 1 Hz, 10.0 V, 4.0 ms duration bipolar pulse train for the full three-dimensional culture period (C-Pace EP, IonOptix).
Optical mapping and automated action potential duration analysis. The inventors used an Olympus MVX10 microscope to image 1.2×1.2-mm^2 regions. […] Fluorescence images were filtered using nonlinear bilateral filter (spatial filter: 5×5 window, temporal filter: 21 point window) to preserve action potential upstrokes from blurring. Typically, four microtissues were recorded simultaneously/scan at this magnification. […] The pixels with action potentials were identified from Fast Fourier transformation (FFT) of fluorescence signals. After appropriate thresholding and image segmentation, the region of each microtissue was grouped and the fluorescence signals from the pixels in the same microtissue were average and used for action potential analysis.
Validation and screening of toxicants for arrhythmogenic risk. […] Concentrations are selected to span human exposure levels or blood serum levels and quantify dose-dependent changes over a wide range (with a goal of more than 10,000× change in concentration and at least 4-6 doses). […]

[1] = cited from earlier work
[2] = system: late sodium current (INa,late); details: read-out: IC50, late sodium current (INa,late) block; cited from earlier work
late ICa = details: cited from earlier work
peak ICa = details: cited from earlier work
[3] = Clinical exposure of ranolazine (FDA documentation); format: in vivo, human; details: dose of 1000 mg b.i.d., bracketed conversion
INCX = details: cited from earlier work
[4] = system: human cardiac fibroblasts; assay: Biochemical myofibroblast activation of human cardiac fibroblasts, αSMA immunofluorescence normalized by vimentin; format: cell-based; details: 10 ng/ml TGF-β1 for forty-eight hours; passage 4 hCFs
Procedure: The inventors next assessed the ability of human cardiac fibroblasts to be further activated via biochemical stimulation by treating passage 4 human cardiac fibroblasts with 10 ng/ml TGF-β1 for forty-eight hours. Cells were fixed and fluorescently labeled for αSMA and vimentin.

Q: With `CC(C)(c1ccc(O)cc1)c1ccc(O)cc1` [BPA, bisphenol-A] as the compound, how does the concentration promoting arrhythmias (rodents) read?
A: 0.001 µM

Q: And the “APDtri (APD80-APD30)” value (hiPSC-CMLP microtissues)?
A: shorter

Q: What about the “concentration that shifts action potential duration measurements” value (hiPSC-CMLP microtissues) of the same compound?
A: one

Q: And the “excitability, pacing at 0.5 Hz” value (hiPSC-CMLP microtissues)?
A: fails to evoke action potentials

Q: And the “APD30 and APD50 versus APD80” value (hiPSC-CMLP microtissues; human, 20 min)?
A: APD30 and APD50 were shortened more than APD80

Q: Which action potential duration (hiPSC-CM microtissues; 5 mM) does the source give for `Cn1c(=O)c2c(ncn2C)n(C)c1=O` [caffeine] here?
A: 90.5 ± 22.3 ms

Q: For `CC(C)NCC(O)c1ccc(O)c(O)c1` (stereo not drawn) [isoproterenol], which action potential duration (hiPSC-CM microtissues; 100 nM) is on record?
A: 120.1±10.5

Q: And the “average reduction of APD80” value (hiPSC-CM microtissues; 100 nM)?
A: 45 ms

Q: With `COc1ccccc1OCC(O)CN1CCN(CC(=O)Nc2c(C)cccc2C)CC1` (stereo not drawn) [ranolazine] as the compound, how does the “mean steady-state Cmax [in blood serum]” value ([1]; dose of 1000 mg b.i.d.) read?
A: 2569 ng/mL

Q: And the therapeutic concentration ([1]; human, in vivo)?
A: 1 to 10 µM

Q: And the IC50 [2]?
A: 5.9 µM

Q: And the IC50 (late ICa)?
A: 50 µM

Q: What about the IC50 (peak ICa) of the same compound?
A: 296 µM

Q: And the Cmax ([3]; read-out: mean steady-state Cmax [in blood serum])?
A: 6 µM

Q: And the Cmax ([3]; human, serum, read-out: 95% of Cmax values)?
A: 0.98 to 14.2 µM

Q: What about the IC50 (INCX) of the same compound?
A: 91 µM

Q: And the “APD changes over dose-response” value (hiPSC-CMLP microtissues)?
A: moderate APD changes within a safety criteria of QT prolongation

Q: For “TGF-β1: growth factor used for biochemical activation of human cardiac fibroblasts to a myofibroblast-like state”, which “increase in normalized αSMA fluorescence compared to control” value [4] is on record?
A: 1.2 fold
